In patent publication US9469853B2, “MCPIP protection against osteoclast production” (University of Central Florida Research Foundation, Inc., priority 2005, dated 2016):

Key:
GRP78 and IRE-1 = experiment: ER stress markers GRP78 and IRE-1 expression; type: cell-based, human; conditions: for expression of ER stress markers GRP78 and IRE-1: substance alone; for MCPIP-induced expression of GRP78 and IRE-1: pretreatment prior to MCPIP transfection, immunoblot; for MCPIP-induced expression of GRP78: autophagy inhibition, MCPIP-transfected BMCs
Description: (§1) BMCs were cultured in α-MEM supplemented with 10% FBS containing 30 ng/ml M-CSF, 100 U/ml penicillin, and 100 μg/ml streptomycin in 5% CO2 at 37° C. OC precursor cells were induced after 3-day culture as Ha et al. (2010). At this point, cells were treated with 50 ng/ml MCP-1, inhibitors, or gene transfection. For inhibitor treatment, CeO2 (10 μM), apocynin (100 μg/ml), TUDC (100 μM), 3′-MA (50 μM), and LY294002 (20 μM) were added 6 h before gene transfection.
(§2) OC precursor cells were transfected with 1 μg GFP or MCPIP-GFP eukaryotic expression plasmids for gene-gain-function assay by using Fugene 6. For gene silencing, chemically synthesized siRNA duplex (100 nM) targeting MCPIP, IRE-1, or Beclin-1 was transfected into OC precursor cells using DharmaFECT (Dharmacon) for 24 h prior to transfection with MCPIP-GFP or GFP plasmid. A scrambled siRNA was used as a negative control. For knockdown expression of p47^PHOX, specific antisense (AS) (5′-[…]-3′ (SEQ ID NO: 5)) and sense (5′-[…]-3′ (SEQ ID NO: 6)) oligonucleotides were designed and synthesized by phosphorothioate modification by Integrated DNA Technologies. The oligonucleotides were transfected into OC precursor cells using Lipofectamine 2000 for 24 h before MCPIP-GFP plasmid transfection.
(§3) Cells were centrifuged after wash with PBS for twice. Cell pellet was resuspended in 1 ml Trizol reagent and the total RNA was extracted with chloroform and isopropanol, purified on Qiagen Mini-Prep column, and treated with DNase. High Capacity cDNA Reverse Transcription kit (Applied Biosystems) was used for cDNA preparation from 1 μg total RNA. qRT-PCR was done in triplicate in an ABI PRISM 7900HT Sequence Detection System with 5% cDNA product, primers (Supplementary Table S1) at 125 nM, and Fast SYBR Green Master Mix (Applied Biosystems). Relative quantitation of PCR products was done by the 2^−ΔΔCT method, CT=cycles to threshold, and ^ΔΔCT=(target gene CT)−(β-actin reference gene CT). Final data were described as fold changes against control cells.
(§4) Sodium dodecyl sulfate-polyacrylamide gel electrophoresis (SDS-PAGE) and western blotting were performed as described elsewhere. Samples (30 μg of protein) were subjected to 12% SDS-PAGE for most of target protein and 18% SDS-PAGE for LC3-II and LC3, transferred onto PVDF membranes (Millipore), and assayed for MCPIP, p47^PHOX, TRAP, CTSK, GRP78, IRE-1, Beclin-1, LC3-II, and β-actin or Fas (loading control) protein expression by chemiluminescence detection (Pierce ECL kit) according to the manufacturer's instructions. The specific protein bands were quantified by densitometric analysis with GS-690 Image Densitometer (Bio-Rad).

[1] = tested on: TRAP and CTSK expression in BMCs; experiment: Expression of OC markers TRAP and CTSK (immunoblot, real-time PCR); type: cell-based, human; conditions: for expression of TRAP and CTSK: substance alone, no other inducer, protein and mRNA; for MCPIP-induced expression of TRAP and CTSK: MCPIP-transfected BMCs, inhibitors 6 h (CeO2 10 μM, apocynin 100 μg/ml, TUDC 100 μM, 3′-MA 50 μM, LY294002 20 μM) or siRNA/antisense 24 h before transfection
Description: as §1, §2, §3, §4

Beclin-1, LC3, Atg7 = experiment: Autophagy markers (Beclin-1, LC3 lipidation, Atg7) expression; type: cell-based, human; conditions: MCPIP-transfected BMCs
Description: as §1, §2, §3, §4

MCPIP = MCPIP expression (immunoblot, real-time PCR); type: cell-based, human
Description: as §1
(§5) OC precursor cells were transfected with 1 μg GFP or MCPIP-GFP eukaryotic expression plasmids for gene-gain-function assay by using Fugene 6. For gene silencing, chemically synthesized siRNA duplex (100 nM) targeting MCPIP, IRE-1, or Beclin-1 was transfected into OC precursor cells using DharmaFECT (Dharmacon) for 24 h prior to transfection with MCPIP-GFP or GFP plasmid. A scrambled siRNA was used as a negative control. […]
(§6) Cells were centrifuged after wash with PBS for twice. […] Relative quantitation of PCR products was done by the 2^−ΔΔCT method, CT=cycles to threshold, and ^ΔΔCT=(target gene CT)−(β-actin reference gene CT). […]
(§7) Sodium dodecyl sulfate-polyacrylamide gel electrophoresis (SDS-PAGE) and western blotting were performed as described elsewhere. […] The specific protein bands were quantified by densitometric analysis with GS-690 Image Densitometer (Bio-Rad).

p47PHOX = p47PHOX expression and membrane translocation (immunoblot); type: cell-based, human
Description: as §1
OC precursor cells were transfected with 1 μg GFP or MCPIP-GFP eukaryotic expression plasmids for gene-gain-function assay by using Fugene 6. […]
OC precursor cells were harvested, sonicated on ice in a buffer containing 100 mM KCl, 3 mM NaCl, 3.5 mM MgCl2, 10 mM HEPES, 1 mM EGTA, 10 μg/ml pepstatin, 10 μg/ml leupeptin, and 0.5 mM PMSF; lysates were centrifuged at 600 g for 10 min at 4° C. to remove nuclei and unbroken cells. […] Membranes were washed in the same buffer, quantified (Lemarie), and resuspended in Laemmli sample buffer, before western blot analysis.
as §7

ROS production in BMCs = experiment: ROS production (DHR123 oxidation); type: cell-based, human
Description: as §1
as §2, with “The oligonucleotides were transfected into OC precursor cells using Lipofectamine 2000 for 24 h before MCPIP-GFP plasmid transfection.” left out
Oxidant production in OC precursor cells was assessed by measuring the oxidation of intracellular DHR123 (Molecular Probes) as described previously (Younce et al., 2010). ROS production was expressed as folds compared with control cells expressing GFP alone.

[2] = tested on: αV integrin, β3 integrin, and MMP9; experiment: Expression of OC functional markers αV integrin, β3 integrin, MMP9; type: cell-based, human; conditions: substance alone
Description: as §1, §5, §6, §7

[3] = tested on: human bone marrow mononuclear cells (BMCs); experiment: TRAP staining, TRAP-positive OC precursor cell formation; type: cell-based; conditions: substance alone, 50 ng/ml MCP-1, human BMCs
Description: as §1, §5
Three days after MCP-1 treatment or 4 days after MCPIP transfection, cells were fixed for histological staining for TRAP as described previously (Kim et al., 2006a). […] On each coverslip, totally at least 500 cells were examined and the TRAP-positive cells were counted in 3-5 fields (20× objective), and the percentage of TRAP-positive cells was calculated.

[4] = pretreatment prior to MCPIP transfection

## tunicamycin
GRP78 and IRE-1
  expression of ER stress markers GRP78 and IRE-1: induced
[1]
  expression of TRAP and CTSK: induced

## C[C@H](CCC(=O)NCCS(=O)(=O)O)[C@H]1CC[C@H]2[C@@H]3[C@@H](O)C[C@@H]4C[C@H](O)CC[C@]4(C)[C@H]3CC[C@]12C [TUDC, tauroursodeoxycholate]
GRP78 and IRE-1
  MCPIP-induced expression of GRP78 and IRE-1: inhibits
Beclin-1, LC3, Atg7
  MCPIP-induced expression of Beclin-1: inhibited significantly
[1]
  MCPIP-induced expression of TRAP and CTSK: significantly inhibited
MCPIP; MCPIP-transfected BMCs
  expression of MCPIP after MCPIP transfection: did not affect

## COc1cc(C(C)=O)ccc1O [apocynin]
GRP78 and IRE-1
  MCPIP-induced expression of GRP78 and IRE-1: attenuated
Beclin-1, LC3, Atg7
  MCPIP-induced expression of Beclin-1: inhibited significantly
p47PHOX; [4]
  MCPIP-induced expression and membrane translocation of p47PHOX: inhibited
[1]
  MCPIP-induced expression of TRAP and CTSK: suppressed
ROS production in BMCs; [4]
  MCPIP-induced ROS production: suppressed

## MCP-1: human MCP-1, a CC chemokine, purchased from Invitrogen
GRP78 and IRE-1
  expression of ER stress markers GRP78 and IRE-1: induced
p47PHOX; substance alone
  expression of p47PHOX and its translocation from the cytoplasm into the membrane: increased
[1]
  expression of TRAP and CTSK: induced
MCPIP; substance alone, 50 ng/ml MCP-1
  MCPIP protein and mRNA levels: induced up-regulation
[2]
  expression of αV integrin, β3 integrin, and MMP9: did not affect
[3]
  TRAP-positive OC precursor cell formation: induced
ROS production in BMCs; substance alone, DHR123 staining
  ROS generation: remarkably increased

## O=c1cc(N2CCOCC2)oc2c(-c3ccccc3)cccc12 [LY294002]
GRP78 and IRE-1
  MCPIP-induced expression of GRP78: no effect

## Cn1cnc(N)c2ncnc1-2 [3′-MA, 3′-methyladenine]
GRP78 and IRE-1
  MCPIP-induced expression of GRP78: no effect
Beclin-1, LC3, Atg7
  MCPIP-induced expression of Beclin-1: significantly inhibited
Beclin-1, LC3, Atg7; immunoblot
  lipidation of LC-3: inhibited
[1]
  MCPIP-induced expression of TRAP and CTSK: significantly inhibited

## C/C=C(/C)C(=O)O[C@H]1C(C)=C2[C@H]([C@@H]1OC(=O)CCCCCCC)[C@@](C)(OC(C)=O)C[C@H](OC(=O)CCC)[C@@]1(O)[C@H]2OC(=O)[C@@]1(C)O [thapsigargin]
GRP78 and IRE-1
  expression of ER stress markers GRP78 and IRE-1: induced
[1]
  expression of TRAP and CTSK: induced
